Reference: PubChem BioAssay (NCI)
Where “and” joins values, the source holds several entries; their conditions need not be identical. Identical values can stand only once.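 Briefly, cells in 96-well plates were exposed to five compound concentrations for 48 h, and endpoints were estimated by linear interpolation. GI50 marks 50% less growth. TGI denotes the concentration required for complete inhibition of growth.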

Legend:
Assay in all cases: NCI tumour cell line growth inhibition, 48 h
A549 NSCLC = test system: A549 NSCLC
MCF7 breast = test system: MCF7 breast
SW-620 colon = test system: SW-620 colon
UACC-62 melanoma = test system: UACC-62 melanoma
HCC-2998 colon = test system: HCC-2998 colon
NCI-H522 lung = test system: NCI-H522 lung
U251 CNS = test system: U251 CNS
OVCAR-3 ovarian = test system: OVCAR-3 ovarian
PC-3 prostate = test system: PC-3 prostate
DU-145 prostate = test system: DU-145 prostate
LOX IMVI melanoma = test system: LOX IMVI melanoma
SK-MEL-5 melanoma = test system: SK-MEL-5 melanoma
OVCAR-4 ovarian = test system: OVCAR-4 ovarian
IGROV1 ovarian = test system: IGROV1 ovarian
NCI-H226 lung = test system: NCI-H226 lung
UACC-257 melanoma = test system: UACC-257 melanoma
HCT-116 colon = test system: HCT-116 colon
HOP-62 NSCLC = test system: HOP-62 NSCLC
OVCAR-5 ovarian = test system: OVCAR-5 ovarian
NCI-H23 lung = test system: NCI-H23 lung
SK-MEL-2 melanoma = test system: SK-MEL-2 melanoma
HCT-15 colon = test system: HCT-15 colon
SF-268 CNS = test system: SF-268 CNS
COLO 205 colon = test system: COLO 205 colon
ACHN renal = test system: ACHN renal
SNB-75 CNS = test system: SNB-75 CNS
NCI/ADR-RES ovarian = test system: NCI/ADR-RES ovarian
HT29 colon = test system: HT29 colon
SK-OV-3 ovarian = test system: SK-OV-3 ovarian
SR leukemia = test system: SR leukemia
CCRF-CEM leukemia = test system: CCRF-CEM leukemia
SF-539 CNS = test system: SF-539 CNS
KM12 colon = test system: KM12 colon
HL-60(TB) leukemia = test system: HL-60(TB) leukemia
RXF 393 renal = test system: RXF 393 renal
K-562 leukemia = test system: K-562 leukemia
SN12C renal = test system: SN12C renal
T-47D breast = test system: T-47D breast
MOLT-4 leukemia = test system: MOLT-4 leukemia
SF-295 CNS = test system: SF-295 CNS
EKVX NSCLC = test system: EKVX NSCLC
MDA-N = test system: MDA-N
MDA-MB-231 breast = test system: MDA-MB-231 breast
SK-MEL-28 melanoma = test system: SK-MEL-28 melanoma
MALME-3M melanoma = test system: MALME-3M melanoma
786-0 renal = test system: 786-0 renal
NCI-H460 lung = test system: NCI-H460 lung
TK-10 renal = test system: TK-10 renal
OVCAR-8 ovarian = test system: OVCAR-8 ovarian
UO-31 renal = test system: UO-31 renal
M14 melanoma = test system: M14 melanoma
SNB-19 CNS = test system: SNB-19 CNS
A498 renal = test system: A498 renal
MDA-MB-435 = test system: MDA-MB-435
HOP-92 NSCLC = test system: HOP-92 NSCLC
BT-549 breast = test system: BT-549 breast
HS 578T breast = test system: HS 578T breast
RPMI-8226 leukemia = test system: RPMI-8226 leukemia

**Q.** Which results are given for `CC(=O)OCC1OC(n2c(-c3ccccc3)c(C(C)=O)c(-c3cccc4ccccc34)c(C#N)c2=S)C(OC(C)=O)C(OC(C)=O)C1OC(C)=O` (stereo unspecified)?
**A.** TGI (A549 NSCLC): > 100 µM; TGI (MCF7 breast): > 100 µM; TGI (SW-620 colon): > 100 µM; GI50 (UACC-62 melanoma): 80.4 µM and 26.7 µM; TGI (UACC-62 melanoma): > 100 µM; TGI (HCC-2998 colon): > 100 µM; TGI (NCI-H522 lung): > 100 µM; TGI (U251 CNS): > 100 µM; TGI (OVCAR-3 ovarian): > 100 µM; TGI (PC-3 prostate): > 100 µM; TGI (DU-145 prostate): > 100 µM; TGI (LOX IMVI melanoma): > 100 µM; TGI (SK-MEL-5 melanoma): > 100 µM; TGI (OVCAR-4 ovarian): > 100 µM; TGI (IGROV1 ovarian): > 100 µM; TGI (NCI-H226 lung): > 100 µM; TGI (UACC-257 melanoma): > 100 µM; TGI (HCT-116 colon): > 100 µM; TGI (HOP-62 NSCLC): > 100 µM; TGI (OVCAR-5 ovarian): > 100 µM; TGI (NCI-H23 lung): > 100 µM; TGI (SK-MEL-2 melanoma): > 100 µM; TGI (HCT-15 colon): > 100 µM; TGI (SF-268 CNS): > 100 µM; TGI (COLO 205 colon): > 100 µM; TGI (ACHN renal): > 100 µM; GI50 (SNB-75 CNS): 22 nM; TGI (SNB-75 CNS): > 100 µM; TGI (NCI/ADR-RES ovarian): > 100 µM; TGI (HT29 colon): > 100 µM; TGI (SK-OV-3 ovarian): > 100 µM; TGI (SR leukemia): > 100 µM; TGI (CCRF-CEM leukemia): > 100 µM; TGI (SF-539 CNS): > 100 µM; TGI (KM12 colon): > 100 µM; TGI (HL-60(TB) leukemia): > 100 µM; TGI (RXF 393 renal): > 100 µM; TGI (K-562 leukemia): > 100 µM; TGI (SN12C renal): > 100 µM; TGI (T-47D breast): > 100 µM; TGI (MOLT-4 leukemia): > 100 µM; TGI (SF-295 CNS): > 100 µM; TGI (EKVX NSCLC): > 100 µM; TGI (MDA-N): > 100 µM; TGI (MDA-MB-231 breast): > 100 µM; TGI (SK-MEL-28 melanoma): > 100 µM; TGI (MALME-3M melanoma): > 100 µM; TGI (786-0 renal): > 100 µM; TGI (NCI-H460 lung): > 100 µM; TGI (TK-10 renal): > 100 µM; TGI (OVCAR-8 ovarian): > 100 µM; TGI (UO-31 renal): 0.0252 µM; TGI (M14 melanoma): > 100 µM; TGI (SNB-19 CNS): > 100 µM; TGI (A498 renal): > 100 µM; TGI (MDA-MB-435): > 100 µM

**Q.** `O=[N+]([O-])C(=C(N1CCOCC1)N1CCOCC1)/C(Cl)=C(\Cl)Br` was tested. Which TGI (A549 NSCLC) did it give?
**A.** The TGI was > 100 µM.

**Q.** And the TGI (SW-620 colon)?
**A.** Its TGI is 28.8 µM.

**Q.** What about the TGI (HCC-2998 colon) of the same compound?
**A.** The TGI was > 100 µM.

**Q.** What about the TGI (HOP-92 NSCLC) of the same compound?
**A.** The TGI was 31 µM.

**Q.** And the TGI (NCI-H522 lung)?
**A.** The TGI was 6.71 µM.

**Q.** And the TGI (U251 CNS)?
**A.** The TGI was 39.9 µM.

**Q.** And the TGI (OVCAR-3 ovarian)?
**A.** The TGI was 28.5 µM.

**Q.** What about the TGI (PC-3 prostate) of the same compound?
**A.** The TGI was > 100 µM.

**Q.** And the TGI (DU-145 prostate)?
**A.** Its TGI is > 100 µM.

**Q.** And the TGI (LOX IMVI melanoma)?
**A.** Its TGI is 41.1 µM.

**Q.** What about the TGI (OVCAR-4 ovarian) of the same compound?
**A.** The TGI was 39.5 µM.

**Q.** And the TGI (NCI-H226 lung)?
**A.** The TGI was 60.5 µM.

**Q.** And the TGI (UACC-257 melanoma)?
**A.** Its TGI is 31.8 µM.

**Q.** And the TGI (BT-549 breast)?
**A.** Its TGI is 28.8 µM.

**Q.** And the TGI (HCT-116 colon)?
**A.** The TGI was 30.8 µM.

**Q.** And the TGI (HOP-62 NSCLC)?
**A.** The TGI was > 100 µM.

**Q.** And the TGI (OVCAR-5 ovarian)?
**A.** Its TGI is 32.4 µM.

**Q.** What about the TGI (NCI-H23 lung) of the same compound?
**A.** Its TGI is 34.1 µM.

**Q.** And the TGI (SK-MEL-2 melanoma)?
**A.** Its TGI is 44.8 µM.

**Q.** And the TGI (HCT-15 colon)?
**A.** Its TGI is 28.9 µM.

**Q.** What about the TGI (SF-268 CNS) of the same compound?
**A.** The TGI was 81.3 µM.

**Q.** What about the TGI (COLO 205 colon) of the same compound?
**A.** Its TGI is 29.6 µM.

**Q.** And the TGI (ACHN renal)?
**A.** Its TGI is 54 µM.

**Q.** What about the TGI (SNB-75 CNS) of the same compound?
**A.** Its TGI is 33.2 µM.

**Q.** What about the TGI (NCI/ADR-RES ovarian) of the same compound?
**A.** Its TGI is 52.9 µM.

**Q.** And the TGI (HT29 colon)?
**A.** The TGI was 44.9 µM.

**Q.** What about the TGI (SR leukemia) of the same compound?
**A.** The TGI was 37.1 µM.

**Q.** What about the TGI (CCRF-CEM leukemia) of the same compound?
**A.** The TGI was 9.49 µM.

**Q.** What about the TGI (SF-539 CNS) of the same compound?
**A.** Its TGI is 57.9 µM.

**Q.** And the TGI (KM12 colon)?
**A.** Its TGI is 76.3 µM.

**Q.** And the TGI (HL-60(TB) leukemia)?
**A.** The TGI was 16.9 µM.

**Q.** What about the TGI (K-562 leukemia) of the same compound?
**A.** Its TGI is 60.2 µM.

**Q.** What about the TGI (SN12C renal) of the same compound?
**A.** Its TGI is 31.7 µM.

**Q.** What about the TGI (T-47D breast) of the same compound?
**A.** Its TGI is 32.1 µM.

**Q.** And the TGI (MOLT-4 leukemia)?
**A.** Its TGI is 33.9 µM.

**Q.** And the TGI (SF-295 CNS)?
**A.** The TGI was > 100 µM.

**Q.** What about the TGI (EKVX NSCLC) of the same compound?
**A.** Its TGI is 37.9 µM.

**Q.** And the TGI (HS 578T breast)?
**A.** Its TGI is > 100 µM.

**Q.** And the TGI (MDA-N)?
**A.** Its TGI is 70.6 µM.

**Q.** And the TGI (MDA-MB-231 breast)?
**A.** Its TGI is 31.8 µM.

**Q.** And the TGI (SK-MEL-28 melanoma)?
**A.** Its TGI is 33.8 µM.

**Q.** And the TGI (MALME-3M melanoma)?
**A.** Its TGI is 30.5 µM.

**Q.** What about the TGI (786-0 renal) of the same compound?
**A.** Its TGI is 58.4 µM.

**Q.** What about the TGI (NCI-H460 lung) of the same compound?
**A.** The TGI was > 100 µM.

**Q.** What about the TGI (OVCAR-8 ovarian) of the same compound?
**A.** The TGI was 64 µM.

**Q.** What about the TGI (UO-31 renal) of the same compound?
**A.** Its TGI is 43.4 µM.

**Q.** And the TGI (M14 melanoma)?
**A.** Its TGI is 28.3 µM.

**Q.** What about the TGI (SNB-19 CNS) of the same compound?
**A.** The TGI was > 100 µM.

**Q.** What about the TGI (A498 renal) of the same compound?
**A.** The TGI was > 100 µM.

**Q.** And the TGI (RPMI-8226 leukemia)?
**A.** The TGI was 33.5 µM.
